Patent publication US7939559B2, “Lipase inhibitors” (Suntory Holdings Limited, priority 2004, dated 2011)
“Also recorded” adds a separate entry of the source.

Target: T1, porcine pancreatic lipase (Sus scrofa, UniProt P00591)
T1 construct: purchased Sigma
T1 sequence (P00591 1-450): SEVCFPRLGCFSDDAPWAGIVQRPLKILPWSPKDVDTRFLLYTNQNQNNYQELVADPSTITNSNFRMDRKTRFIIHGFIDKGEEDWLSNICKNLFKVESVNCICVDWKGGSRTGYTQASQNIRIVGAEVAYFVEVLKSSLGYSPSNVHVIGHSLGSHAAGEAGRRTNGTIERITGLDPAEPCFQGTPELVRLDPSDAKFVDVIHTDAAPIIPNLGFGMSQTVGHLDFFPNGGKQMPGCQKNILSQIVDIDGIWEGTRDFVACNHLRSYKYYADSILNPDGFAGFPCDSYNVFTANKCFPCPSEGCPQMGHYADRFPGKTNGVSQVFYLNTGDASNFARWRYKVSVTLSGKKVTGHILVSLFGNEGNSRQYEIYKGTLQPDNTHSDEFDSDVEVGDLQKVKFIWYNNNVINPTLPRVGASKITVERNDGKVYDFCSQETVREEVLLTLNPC
Test: Lipase inhibitory activity assay (4-MUO fluorescent substrate)
Type: biochemical
Conditions: for IC50 / lipase inhibitory activity (in words): porcine pancreatic lipase; for IC50: substrate 4-MUO, 25° C., 30 minutes, pH 8.0; for lipase inhibitory activity (in words): 4-MUO, comparison among major tea catechins
Method: A lipase activity assay was performed by using the oleate ester of fluorescent 4-methylumbelliferone (4-MUO) as a substrate to measure the fluorescence of 4-methylumbelliferone produced by reaction.
The buffer used for the assay was 13 mM Tris-HCl (pH 8.0) containing 150 mM NaCl, 1.36 mM CaCl2. The enzyme assay was performed using a 0.1 M solution of the substrate 4-MUO (Sigma) in DMSO diluted 1:1000 in said buffer and a solution of porcine pancreatic lipase (Sigma) prepared at 400 U/ml also in said buffer.
An enzymatic reaction was started by adding 25 μl of the lipase/buffer solution after 50 μl of the 4-MUO/buffer solution and 25 μl of distilled water (or an aqueous solution of each sample) were added and mixed in a 96-well microplate at 25° C. After the reaction was performed for 30 minutes, the reaction was stopped by adding 100 μl of a 0.1 M citrate buffer (pH 4.2) and the fluorescence of 4-methylumbelliferone produced by the reaction (excitation 355 nm, emission 460 nm) was measured using a fluorescence plate reader (Fluoroskan Asent CF from Labsystems).
The inhibitory activity of each test sample was determined as IC50(μM), i.e. the amount of the sample giving 50% inhibition of the activity of the control (distilled water).

| Molecule | IC50 | lipase inhibitory activity relative to EGCG (6) (fold higher activity than (−)-epigallocatechin 3-O-gallate) | lipase inhibitory activity relative to GCG (12) (fold higher activity than (−)-gallocatechin 3-O-gallate) | lipase inhibitory activity (in words) |
| --- | --- | --- | --- | --- |
| COc1cc(C(=O)O[C@@H]2Cc3c(O)cc(O)cc3O[C@@H]2c2ccc(O)c(O)c2)cc(O)c1O [compound 4, (−)-epicatechin 3-O-(3′-O-methyl-gallate)] | 680 nM |  |  |  |
| O=C(O[C@@H]1Cc2c(O)cc(O)cc2O[C@H]1c1ccc(O)c(O)c1)c1cc(O)c(O)c(O)c1 [compound 10, (−)-catechin 3-O-gallate] | 543 nM |  |  | showed lipase inhibitory activity |
| O=C(O[C@@H]1Cc2c(O)cc(O)cc2O[C@H]1c1cc(O)c(O)c(O)c1)c1cc(O)c(O)c(O)c1 [compound 12, (−)-gallocatechin 3-O-gallate] | 437 nM |  |  | showed lipase inhibitory activity |
| O=C1O[C@H]([C@@H](O)CO)C2(O)Oc3cc(O)c4c(c3C12O)O[C@H](c1cc(O)c(O)c(O)c1)[C@H](O)C4 (stereo partly drawn) [compound 14, 8-C-ascorbyl(−)-epigallocatechin] | 646 nM |  |  |  |
| O=C(O[C@@H]1Cc2c(O)cc3c(c2O[C@@H]1c1cc(O)c(O)c(O)c1)C1(O)C(=O)O[C@H]([C@@H](O)CO)C1(O)O3)c1cc(O)c(O)c(O)c1 (stereo partly drawn) [compound 15, 8-C-ascorbyl(−)-epigallocatechin 3-O-gallate] | 791 nM |  |  |  |
| (−)-epiafzelechin 3-O-gallate [compound 1] | 2580 nM |  |  |  |
| (−)-epicatechin 3-O-gallate [compound 3] | 452 nM |  |  | showed lipase inhibitory activity |

Continued, in another order:

| IC50 | lipase inhibitory activity relative to EGCG (6) (fold higher activity than (−)-epigallocatechin 3-O-gallate) | lipase inhibitory activity relative to GCG (12) (fold higher activity than (−)-gallocatechin 3-O-gallate) | Molecule | lipase inhibitory activity (in words) |
| --- | --- | --- | --- | --- |
| > 20000 nM |  |  | Oc1cc(O)c2c(c1)O[C@H](c1ccc(O)c(O)c1)[C@H](O)C2 [compound 2, (−)-epicatechin] |  |
| > 20000 nM |  |  | Oc1cc(O)c2c(c1)O[C@H](c1cc(O)c(O)c(O)c1)[C@H](O)C2 [compound 5, (−)-epigallocatechin] |  |
| 349 nM |  |  | O=C(O[C@@H]1Cc2c(O)cc(O)cc2O[C@@H]1c1cc(O)c(O)c(O)c1)c1cc(O)c(O)c(O)c1 [compound 6, (−)-epigallocatechin 3-O-gallate] | showed lipase inhibitory activity; also recorded: showed the strongest activity among these catechins |
| 98 nM | about 3.5 times |  | O=C(Oc1cc(O)cc2c1C[C@@H](OC(=O)c1cc(O)c(O)c(O)c1)[C@@H](c1cc(O)c(O)c(O)c1)O2)c1cc(O)c(O)c(O)c1 [compound 7, (−)-epigallocatechin 3,5-di-O-gallate] |  |
| 885 nM |  |  | O=C(/C=C/c1ccc(O)cc1)O[C@@H]1Cc2c(O)cc(O)cc2O[C@@H]1c1cc(O)c(O)c(O)c1 [compound 8, (−)-epigallocatechin 3-O-p-coumaroate] |  |
| > 20000 nM |  |  | Oc1cc(O)c2c(c1)O[C@H](c1ccc(O)c(O)c1)[C@@H](O)C2 [compound 9, (+)-catechin] | did not show lipase inhibitory activity |
| > 20000 nM |  |  | Oc1cc(O)c2c(c1)O[C@H](c1cc(O)c(O)c(O)c1)[C@@H](O)C2 [compound 11, (+)-gallocatechin] |  |
| 213 nM |  | about twice higher | O=C(Oc1cc(O)cc2c1C[C@H](OC(=O)c1cc(O)c(O)c(O)c1)[C@@H](c1cc(O)c(O)c(O)c1)O2)c1cc(O)c(O)c(O)c1 [compound 13, (−)-gallocatechin 3,5-di-O-gallate] |  |
